What was measured:
[1] = Ratio of drug uptake in pons to cerebellum in anesthetized cynomolgus monkey after 195 mins postinjection; type: ADME, organism-based, Macaca fascicularis; settings: in vivo, 3.25 h
[2] = Ratio of drug uptake in medulla to cerebellum in anesthetized cynomolgus monkey after 35 mins postinjection; type: ADME, organism-based, Macaca fascicularis; settings: in vivo
[3] = Ratio of drug uptake in medulla to cerebellum in anesthetized cynomolgus monkey after 165 mins postinjection; type: ADME, organism-based, Macaca fascicularis; settings: in vivo, 2.75 h
[4] = Ratio of drug uptake in midbrain to cerebellum in anesthetized cynomolgus monkey after 225 mins postinjection; type: ADME, organism-based, Macaca fascicularis; settings: in vivo, 3.75 h
[5] = Ratio of drug uptake in occipital lobe to cerebellum in anesthetized cynomolgus monkey after 135 mins postinjection; type: ADME, organism-based, Macaca fascicularis; settings: in vivo, 2.25 h
[6] = Ratio of drug uptake in occipital lobe to cerebellum in anesthetized cynomolgus monkey after 195 mins postinjection; type: ADME, organism-based, Macaca fascicularis; settings: in vivo, 3.25 h
[7] = Ratio of drug uptake in occipital lobe to cerebellum in anesthetized cynomolgus monkey after 205 mins postinjection; type: ADME, organism-based, Macaca fascicularis; settings: in vivo
Midbrain [8] = assay: Drug uptake in anesthetized cynomolgus monkey brain midbrain after 165 mins postinjection; type: ADME, organism-based, Macaca fascicularis; settings: in vivo, 2.75 h
Midbrain [9] = assay: Drug uptake in anesthetized cynomolgus monkey brain midbrain after 225 mins postinjection; type: ADME, organism-based, Macaca fascicularis; settings: in vivo, 3.75 h
Pons [10] = assay: Drug uptake in anesthetized cynomolgus monkey brain pons after 15.5 mins postinjection; type: ADME, organism-based, Macaca fascicularis; settings: in vivo
Thalamus [11] = assay: Drug uptake in anesthetized cynomolgus monkey brain thalamus after 195 mins postinjection; type: ADME, organism-based, Macaca fascicularis; settings: in vivo, 3.25 h
Midbrain [12] = assay: Drug uptake in anesthetized cynomolgus monkey brain midbrain after 185 mins postinjection; type: ADME, organism-based, Macaca fascicularis; settings: in vivo
Midbrain [13] = assay: Drug uptake in anesthetized cynomolgus monkey brain midbrain after 195 mins postinjection; type: ADME, organism-based, Macaca fascicularis; settings: in vivo, 3.25 h
Midbrain [14] = assay: Drug uptake in anesthetized cynomolgus monkey brain midbrain after 205 mins postinjection; type: ADME, organism-based, Macaca fascicularis; settings: in vivo
Medulla [15] = assay: Drug uptake in anesthetized cynomolgus monkey brain medulla after 195 mins postinjection; type: ADME, organism-based, Macaca fascicularis; settings: in vivo, 3.25 h
[16] = Drug uptake in anesthetized cynomolgus monkey brain cerebellum after 195 mins postinjection; type: ADME, organism-based, Macaca fascicularis; settings: in vivo, 3.25 h
Putamen [17] = assay: Drug uptake in anesthetized cynomolgus monkey brain putamen after 185 mins postinjection; type: ADME, organism-based, Macaca fascicularis; settings: in vivo
Putamen [18] = assay: Drug uptake in anesthetized cynomolgus monkey brain putamen after 205 mins postinjection; type: ADME, organism-based, Macaca fascicularis; settings: in vivo
[19] = Ratio of drug uptake in caudate to cerebellum in anesthetized cynomolgus monkey after 12.5 mins postinjection; type: ADME, organism-based, Macaca fascicularis; settings: in vivo
Pons [20] = assay: Drug uptake in anesthetized cynomolgus monkey brain pons after 215 mins postinjection; type: ADME, organism-based, Macaca fascicularis; settings: in vivo
Pons [21] = assay: Drug uptake in anesthetized cynomolgus monkey brain pons after 225 mins postinjection; type: ADME, organism-based, Macaca fascicularis; settings: in vivo, 3.75 h
Medulla [22] = assay: Drug uptake in anesthetized cynomolgus monkey brain medulla after 3.5 mins postinjection; type: ADME, organism-based, Macaca fascicularis; settings: in vivo
Medulla [23] = assay: Drug uptake in anesthetized cynomolgus monkey brain medulla after 22.5 mins postinjection; type: ADME, organism-based, Macaca fascicularis; settings: in vivo, 0.375 h
Medulla [24] = assay: Drug uptake in anesthetized cynomolgus monkey brain medulla after 27.5 mins postinjection; type: ADME, organism-based, Macaca fascicularis; settings: in vivo
Medulla [25] = assay: Drug uptake in anesthetized cynomolgus monkey brain medulla after 135 mins postinjection; type: ADME, organism-based, Macaca fascicularis; settings: in vivo, 2.25 h
Medulla [26] = assay: Drug uptake in anesthetized cynomolgus monkey brain medulla after 155 mins postinjection; type: ADME, organism-based, Macaca fascicularis; settings: in vivo
[27] = Drug uptake in anesthetized cynomolgus monkey brain cerebellum after 6.5 mins postinjection; type: ADME, organism-based, Macaca fascicularis; settings: in vivo
[28] = Drug uptake in anesthetized cynomolgus monkey brain cerebellum after 12.5 mins postinjection; type: ADME, organism-based, Macaca fascicularis; settings: in vivo
[29] = Drug uptake in anesthetized cynomolgus monkey brain cerebellum after 22.5 mins postinjection; type: ADME, organism-based, Macaca fascicularis; settings: in vivo, 0.375 h
Medulla [30] = assay: Drug uptake in anesthetized cynomolgus monkey brain medulla after 115 mins postinjection; type: ADME, organism-based, Macaca fascicularis; settings: in vivo
Caudate [31] = assay: Drug uptake in anesthetized cynomolgus monkey brain caudate after 0.5 mins postinjection; type: ADME, organism-based, Macaca fascicularis, Caudate nucleus; settings: in vivo
Caudate [32] = assay: Drug uptake in anesthetized cynomolgus monkey brain caudate after 1.5 mins postinjection; type: ADME, organism-based, Macaca fascicularis, Caudate nucleus; settings: in vivo, 0.025 h
Caudate [33] = assay: Drug uptake in anesthetized cynomolgus monkey brain caudate after 9.5 mins postinjection; type: ADME, organism-based, Macaca fascicularis, Caudate nucleus; settings: in vivo
Caudate [34] = assay: Drug uptake in anesthetized cynomolgus monkey brain caudate after 15.5 mins postinjection; type: ADME, organism-based, Macaca fascicularis, Caudate nucleus; settings: in vivo
Caudate [35] = assay: Drug uptake in anesthetized cynomolgus monkey brain caudate after 135 mins postinjection; type: ADME, organism-based, Macaca fascicularis, Caudate nucleus; settings: in vivo, 2.25 h
Caudate [36] = assay: Drug uptake in anesthetized cynomolgus monkey brain caudate after 175 mins postinjection; type: ADME, organism-based, Macaca fascicularis, Caudate nucleus; settings: in vivo
Caudate [37] = assay: Drug uptake in anesthetized cynomolgus monkey brain caudate after 225 mins postinjection; type: ADME, organism-based, Macaca fascicularis, Caudate nucleus; settings: in vivo, 3.75 h
[38] = Ratio of drug uptake in occipital lobe to cerebellum in anesthetized cynomolgus monkey after 18.5 mins postinjection; type: ADME, organism-based, Macaca fascicularis; settings: in vivo
Thalamus [39] = assay: Drug uptake in anesthetized cynomolgus monkey brain thalamus after 15.5 mins postinjection; type: ADME, organism-based, Macaca fascicularis; set-up: unit not given here; settings: in vivo
Thalamus [40] = assay: Drug uptake in anesthetized cynomolgus monkey brain thalamus after 18.5 mins postinjection; type: ADME, organism-based, Macaca fascicularis; set-up: unit not given here; settings: in vivo
Thalamus [41] = assay: Drug uptake in anesthetized cynomolgus monkey brain thalamus after 27.5 mins postinjection; type: ADME, organism-based, Macaca fascicularis; set-up: unit not given here; settings: in vivo
Putamen [42] = assay: Drug uptake in anesthetized cynomolgus monkey brain putamen after 15.5 mins postinjection; type: ADME, organism-based, Macaca fascicularis; set-up: unit not given here; settings: in vivo
Putamen [43] = assay: Drug uptake in anesthetized cynomolgus monkey brain putamen after 45 mins postinjection; type: ADME, organism-based, Macaca fascicularis; set-up: unit not given here; settings: in vivo, 0.75 h
Thalamus [44] = assay: Drug uptake in anesthetized cynomolgus monkey brain thalamus after 95 mins postinjection; type: ADME, organism-based, Macaca fascicularis; set-up: unit not given here; settings: in vivo
Thalamus [45] = assay: Drug uptake in anesthetized cynomolgus monkey brain thalamus after 105 mins postinjection; type: ADME, organism-based, Macaca fascicularis; set-up: unit not given here; settings: in vivo, 1.75 h
Thalamus [46] = assay: Drug uptake in anesthetized cynomolgus monkey brain thalamus after 165 mins postinjection; type: ADME, organism-based, Macaca fascicularis; set-up: unit not given here; settings: in vivo, 2.75 h
Thalamus [47] = assay: Drug uptake in anesthetized cynomolgus monkey brain thalamus after 225 mins postinjection; type: ADME, organism-based, Macaca fascicularis; set-up: unit not given here; settings: in vivo, 3.75 h
Midbrain [48] = assay: Drug uptake in anesthetized cynomolgus monkey brain midbrain after 0.5 mins postinjection; type: ADME, organism-based, Macaca fascicularis; set-up: unit not given here; settings: in vivo
Midbrain [49] = assay: Drug uptake in anesthetized cynomolgus monkey brain midbrain after 4.5 mins postinjection; type: ADME, organism-based, Macaca fascicularis; set-up: unit not given here; settings: in vivo, 0.075 h
Midbrain [50] = assay: Drug uptake in anesthetized cynomolgus monkey brain midbrain after 6.5 mins postinjection; type: ADME, organism-based, Macaca fascicularis; set-up: unit not given here; settings: in vivo
Midbrain [51] = assay: Drug uptake in anesthetized cynomolgus monkey brain midbrain after 115 mins postinjection; type: ADME, organism-based, Macaca fascicularis; set-up: unit not given here; settings: in vivo
[52] = Ratio of drug uptake in midbrain to cerebellum in anesthetized cynomolgus monkey after 125 mins postinjection; type: ADME, organism-based, Macaca fascicularis; settings: in vivo
[53] = Drug uptake in anesthetized cynomolgus monkey brain frontal lobe after 165 mins postinjection; type: ADME, organism-based, Macaca fascicularis; settings: in vivo, 2.75 h
Putamen [54] = assay: Drug uptake in anesthetized cynomolgus monkey brain putamen after 155 mins postinjection; type: ADME, organism-based, Macaca fascicularis; settings: in vivo
[55] = Ratio of drug uptake in occipital lobe to cerebellum in anesthetized cynomolgus monkey after 0.5 mins postinjection; type: ADME, organism-based, Macaca fascicularis; settings: in vivo
[56] = Ratio of drug uptake in midbrain to cerebellum in anesthetized cynomolgus monkey after 9.5 mins postinjection; type: ADME, organism-based, Macaca fascicularis; settings: in vivo
[57] = Ratio of drug uptake in midbrain to cerebellum in anesthetized cynomolgus monkey after 27.5 mins postinjection; type: ADME, organism-based, Macaca fascicularis; settings: in vivo

`O=C(OCC[18F])C1C2CCC(CC1c1ccc(/C=C\I)cc1)N2` (centres undefined) showed a Ratio [1] of 2.6, a Ratio [2] of 1.4 and a Ratio [3] of 2.6. The Ratio [4] was 4.2, the Ratio [5] was 1.3 and the Ratio [6] was 1.4. It also gave a Ratio [7] of 1.4, a Drug uptake (Midbrain [8]) of 4.6 and a Drug uptake (Midbrain [9]) of 4.51. For the same molecule, the Drug uptake (Pons [10]) was 2.14, the Drug uptake (Thalamus [11]) was 3.67 and the Drug uptake (Midbrain [12]) was 4.64. The Drug uptake (Midbrain [13]) was 4.56, the Drug uptake (Midbrain [14]) was 4.57 and the Drug uptake (Medulla [15]) was 3.41. For the same molecule, the Drug uptake [16] was 1.29, the Drug uptake (Putamen [17]) was 4.01 and the Drug uptake (Putamen [18]) was 3.94. It also gave a Ratio [19] of 0.8, a Drug uptake (Pons [20]) of 3.39 and a Drug uptake (Pons [21]) of 3.34. For the same molecule, the Drug uptake (Medulla [22]) was 0.94, the Drug uptake (Medulla [23]) was 3.09 and the Drug uptake (Medulla [24]) was 3.35. For the same molecule, the Drug uptake (Medulla [25]) was 3.69, the Drug uptake (Medulla [26]) was 3.73 and the Drug uptake [27] was 1.79. It also gave a Drug uptake [28] of 2.13, a Drug uptake [29] of 2.63 and a Drug uptake (Medulla [30]) of 3.8. For the same molecule, the Drug uptake (Caudate [31]) was 0, the Drug uptake (Caudate [32]) was 0.07 and the Drug uptake (Caudate [33]) was 1.47. For the same molecule, the Drug uptake (Caudate [34]) was 1.74, the Drug uptake (Caudate [35]) was 3.1 and the Drug uptake (Caudate [36]) was 3. It also gave a Drug uptake (Caudate [37]) of 2.68, a Ratio [38] of 0.7 and a Drug uptake (Thalamus [39]) of 2.54. The Drug uptake (Thalamus [40]) was 2.7, the Drug uptake (Thalamus [41]) was 3.06 and the Drug uptake (Putamen [42]) was 2.71. It also gave a Drug uptake (Putamen [43]) of 3.8, a Drug uptake (Thalamus [44]) of 4.15 and a Drug uptake (Thalamus [45]) of 4.11. The Drug uptake (Thalamus [46]) was 3.88, the Drug uptake (Thalamus [47]) was 3.35 and the Drug uptake (Midbrain [48]) was 0. It also gave a Drug uptake (Midbrain [49]) of 1.23, a Drug uptake (Midbrain [50]) of 1.74 and a Drug uptake (Midbrain [51]) of 4.5. The Ratio [52] was 2.7.
Molecule `O=C(OCC[18F])C1C2CCC(CC1c1cccc(/C=C\I)c1)N2` (centres undefined) has a Ratio [3] of 1.7, a Drug uptake [53] of 1.81 and a Drug uptake (Putamen [54]) of 3.13. For the same molecule, the Drug uptake (Midbrain [8]) was 3.53, the Drug uptake (Midbrain [9]) was 2.99 and the Drug uptake (Pons [10]) was 2.82. The Drug uptake (Pons [20]) was 2.08, the Drug uptake (Pons [21]) was 2.03 and the Drug uptake (Medulla [22]) was 1.08. It also gave a Drug uptake (Medulla [23]) of 3.83, a Drug uptake (Medulla [24]) of 3.97 and a Drug uptake (Medulla [25]) of 3.24. For the same molecule, the Drug uptake (Medulla [26]) was 2.98, the Drug uptake [27] was 2.98 and the Drug uptake [28] was 3.71. The Drug uptake [29] was 4.02, the Drug uptake (Medulla [30]) was 3.43 and the Drug uptake (Caudate [31]) was 0. The Drug uptake (Caudate [32]) was 0.08, the Drug uptake (Caudate [33]) was 2.5 and the Drug uptake (Caudate [34]) was 2.94. For the same molecule, the Drug uptake (Caudate [35]) was 2.87, the Drug uptake (Caudate [36]) was 2.43 and the Drug uptake (Caudate [37]) was 2.02. It also gave a Ratio [55] of 0.8, a Ratio [38] of 0.7 and a Drug uptake (Thalamus [39]) of 3.48. For the same molecule, the Drug uptake (Thalamus [40]) was 3.7, the Drug uptake (Thalamus [41]) was 4.02 and the Drug uptake (Putamen [42]) was 3.61. For the same molecule, the Drug uptake (Putamen [43]) was 4.41, the Drug uptake (Thalamus [44]) was 3.91 and the Drug uptake (Thalamus [45]) was 3.74. For the same molecule, the Drug uptake (Thalamus [46]) was 2.91, the Drug uptake (Thalamus [47]) was 2.29 and the Drug uptake (Midbrain [48]) was 0. It also gave a Drug uptake (Midbrain [49]) of 1.87, a Drug uptake (Midbrain [50]) of 2.99 and a Drug uptake (Midbrain [51]) of 4.18. The Ratio [56] was 1, the Ratio [57] was 1.1 and the Ratio [52] was 2.
